According to publication PMC4854315, “Discovery of a novel allosteric inhibitor-binding site in ERK5: comparison with the canonical kinase hinge ATP-binding site” (Acta Crystallographica. Section D, Structural Biology, 2016):

Assays:
Experiment in all cases: Z'-LYTE kinase panel
Type in all cases: biochemical
[1] = target: T1, ITK (Homo sapiens, UniProt Q08881)
T1 construct: purchased ThermoFisher (SelectScreen, Z'-LYTE)
T1 sequence (Q08881 1-620): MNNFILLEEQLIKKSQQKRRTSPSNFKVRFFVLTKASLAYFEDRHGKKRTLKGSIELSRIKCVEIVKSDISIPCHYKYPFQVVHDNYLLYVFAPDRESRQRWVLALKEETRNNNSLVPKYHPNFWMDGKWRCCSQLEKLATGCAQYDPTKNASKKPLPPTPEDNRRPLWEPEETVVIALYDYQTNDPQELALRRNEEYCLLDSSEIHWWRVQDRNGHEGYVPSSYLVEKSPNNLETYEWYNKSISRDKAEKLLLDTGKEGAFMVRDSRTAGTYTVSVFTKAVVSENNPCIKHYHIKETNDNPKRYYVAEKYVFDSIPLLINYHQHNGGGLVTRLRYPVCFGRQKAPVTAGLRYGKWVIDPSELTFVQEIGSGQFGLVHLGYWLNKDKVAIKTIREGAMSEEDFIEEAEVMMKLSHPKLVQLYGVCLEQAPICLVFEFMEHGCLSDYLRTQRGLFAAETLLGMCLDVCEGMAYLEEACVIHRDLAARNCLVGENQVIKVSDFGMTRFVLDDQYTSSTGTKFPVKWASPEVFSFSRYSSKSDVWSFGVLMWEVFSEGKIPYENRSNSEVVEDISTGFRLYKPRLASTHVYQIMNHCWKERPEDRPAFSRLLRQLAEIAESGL
In short: (§1)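 Compounds were profiled across a 225-kinase standard panel. Each kinase was run in the standard Z′-LYTE assay and percentage inhibition was recorded at a compound concentration of 10 µM.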

[2] = target: T2, PTK6 (Brk) (Homo sapiens, UniProt Q13882)
T2 construct: purchased ThermoFisher (SelectScreen, Z'-LYTE)
T2 sequence (Q13882 whole entry): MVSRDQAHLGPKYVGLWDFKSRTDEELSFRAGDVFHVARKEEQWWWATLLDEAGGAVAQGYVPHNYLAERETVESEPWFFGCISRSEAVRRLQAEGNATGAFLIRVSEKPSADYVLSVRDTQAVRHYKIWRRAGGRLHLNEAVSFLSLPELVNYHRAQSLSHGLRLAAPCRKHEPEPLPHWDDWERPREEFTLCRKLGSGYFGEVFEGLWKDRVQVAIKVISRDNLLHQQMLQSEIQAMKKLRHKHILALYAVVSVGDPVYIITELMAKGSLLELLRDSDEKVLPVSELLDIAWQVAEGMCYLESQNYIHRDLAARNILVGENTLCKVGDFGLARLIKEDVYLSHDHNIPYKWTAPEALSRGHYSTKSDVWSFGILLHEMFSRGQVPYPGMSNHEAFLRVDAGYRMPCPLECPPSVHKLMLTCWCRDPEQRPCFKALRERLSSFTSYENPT
In short: as §1

[3] = target: T3, MAP2K6 (MKK6) (Homo sapiens, UniProt P52564); conditions: 10 µM compound; ATP 100
T3 construct: purchased ThermoFisher (SelectScreen, Z'-LYTE)
T3 sequence (P52564 1-334): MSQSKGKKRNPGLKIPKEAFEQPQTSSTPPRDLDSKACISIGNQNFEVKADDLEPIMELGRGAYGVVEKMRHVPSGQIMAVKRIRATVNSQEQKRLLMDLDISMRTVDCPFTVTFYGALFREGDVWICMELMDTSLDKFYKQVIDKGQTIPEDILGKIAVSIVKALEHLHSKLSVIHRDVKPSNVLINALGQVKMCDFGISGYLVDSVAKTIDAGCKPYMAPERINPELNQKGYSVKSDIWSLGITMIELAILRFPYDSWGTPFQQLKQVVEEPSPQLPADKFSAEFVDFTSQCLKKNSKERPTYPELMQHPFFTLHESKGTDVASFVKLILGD
In short: as §1

[4] = target: T4, PRKCE (PKC epsilon) (Homo sapiens, UniProt Q02156)
T4 construct: purchased ThermoFisher (SelectScreen, Z'-LYTE)
T4 sequence (Q02156 1-737): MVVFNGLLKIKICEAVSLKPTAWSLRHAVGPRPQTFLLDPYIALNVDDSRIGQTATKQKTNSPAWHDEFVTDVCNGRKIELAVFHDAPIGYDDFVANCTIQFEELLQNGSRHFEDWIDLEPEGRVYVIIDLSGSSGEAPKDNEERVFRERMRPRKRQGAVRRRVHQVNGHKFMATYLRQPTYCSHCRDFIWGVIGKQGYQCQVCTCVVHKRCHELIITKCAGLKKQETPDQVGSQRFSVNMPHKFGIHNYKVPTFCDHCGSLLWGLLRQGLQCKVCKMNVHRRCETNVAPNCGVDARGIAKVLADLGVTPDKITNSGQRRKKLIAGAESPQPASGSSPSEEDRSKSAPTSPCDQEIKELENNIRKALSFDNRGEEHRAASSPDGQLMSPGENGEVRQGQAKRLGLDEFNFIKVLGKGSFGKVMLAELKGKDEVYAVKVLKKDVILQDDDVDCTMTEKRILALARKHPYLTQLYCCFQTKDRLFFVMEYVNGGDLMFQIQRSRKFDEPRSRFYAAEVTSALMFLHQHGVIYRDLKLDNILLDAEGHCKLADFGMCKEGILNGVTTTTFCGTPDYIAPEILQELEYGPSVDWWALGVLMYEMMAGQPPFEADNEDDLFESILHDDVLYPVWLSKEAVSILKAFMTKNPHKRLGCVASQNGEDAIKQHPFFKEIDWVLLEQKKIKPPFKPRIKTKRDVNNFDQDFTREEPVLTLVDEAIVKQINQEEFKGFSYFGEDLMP
In short: as §1

[5] = target: T5, PRKCZ (PKC zeta) (Homo sapiens, UniProt Q05513)
T5 construct: purchased ThermoFisher (SelectScreen, Z'-LYTE)
T5 sequence (Q05513 1-592): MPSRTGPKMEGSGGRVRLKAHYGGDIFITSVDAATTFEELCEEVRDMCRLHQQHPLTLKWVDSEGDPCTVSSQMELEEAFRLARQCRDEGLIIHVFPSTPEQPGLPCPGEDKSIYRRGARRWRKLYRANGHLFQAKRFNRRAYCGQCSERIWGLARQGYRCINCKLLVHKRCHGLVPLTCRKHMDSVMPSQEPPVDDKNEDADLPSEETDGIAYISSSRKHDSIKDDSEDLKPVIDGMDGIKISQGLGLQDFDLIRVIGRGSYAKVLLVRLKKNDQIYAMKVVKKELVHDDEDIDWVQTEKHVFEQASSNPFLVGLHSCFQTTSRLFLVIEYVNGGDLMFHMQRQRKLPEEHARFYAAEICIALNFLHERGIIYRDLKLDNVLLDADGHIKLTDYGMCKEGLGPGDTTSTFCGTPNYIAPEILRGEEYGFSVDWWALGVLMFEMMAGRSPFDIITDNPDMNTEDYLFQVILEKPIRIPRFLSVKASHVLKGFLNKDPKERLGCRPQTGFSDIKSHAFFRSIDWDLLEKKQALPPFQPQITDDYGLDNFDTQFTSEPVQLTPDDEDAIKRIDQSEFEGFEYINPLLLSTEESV
In short: as §1

[6] = target: T6, CSNK2A2 (CK2 alpha 2) (Homo sapiens, UniProt P19784)
T6 construct: purchased ThermoFisher (SelectScreen, Z'-LYTE)
T6 sequence (P19784 whole entry): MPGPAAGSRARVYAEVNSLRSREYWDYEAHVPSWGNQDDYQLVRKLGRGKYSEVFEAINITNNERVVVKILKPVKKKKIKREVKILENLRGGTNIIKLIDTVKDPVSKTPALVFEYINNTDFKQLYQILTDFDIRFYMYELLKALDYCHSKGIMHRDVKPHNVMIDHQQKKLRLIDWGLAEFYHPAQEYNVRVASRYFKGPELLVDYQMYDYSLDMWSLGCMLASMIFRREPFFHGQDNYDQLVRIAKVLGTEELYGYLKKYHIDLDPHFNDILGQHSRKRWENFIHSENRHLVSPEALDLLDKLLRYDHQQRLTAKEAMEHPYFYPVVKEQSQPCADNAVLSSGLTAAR
In short: as §1

[7] = target: T7, RPS6KA4 (MSK2) (Homo sapiens, UniProt O75676)
T7 construct: purchased ThermoFisher (SelectScreen, Z'-LYTE)
T7 sequence (O75676 whole entry): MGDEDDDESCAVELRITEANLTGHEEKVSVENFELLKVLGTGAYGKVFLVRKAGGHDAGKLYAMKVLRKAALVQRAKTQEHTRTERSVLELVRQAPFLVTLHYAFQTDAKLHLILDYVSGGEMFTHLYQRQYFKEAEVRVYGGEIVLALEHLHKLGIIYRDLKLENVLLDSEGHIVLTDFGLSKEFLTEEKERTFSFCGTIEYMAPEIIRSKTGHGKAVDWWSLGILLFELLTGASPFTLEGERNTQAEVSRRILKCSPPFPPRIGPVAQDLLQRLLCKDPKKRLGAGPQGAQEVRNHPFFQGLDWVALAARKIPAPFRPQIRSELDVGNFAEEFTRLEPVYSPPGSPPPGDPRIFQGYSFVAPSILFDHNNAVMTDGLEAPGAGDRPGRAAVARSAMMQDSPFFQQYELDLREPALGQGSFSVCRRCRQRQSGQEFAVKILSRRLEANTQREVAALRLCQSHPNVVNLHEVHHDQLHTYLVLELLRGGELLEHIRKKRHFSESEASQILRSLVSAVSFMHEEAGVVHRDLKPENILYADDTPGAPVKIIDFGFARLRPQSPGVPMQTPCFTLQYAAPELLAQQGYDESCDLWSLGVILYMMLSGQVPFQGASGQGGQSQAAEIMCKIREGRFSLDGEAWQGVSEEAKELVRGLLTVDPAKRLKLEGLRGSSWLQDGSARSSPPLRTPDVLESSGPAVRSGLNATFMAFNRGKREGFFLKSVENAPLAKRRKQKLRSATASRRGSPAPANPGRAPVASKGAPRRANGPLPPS
In short: as §1

[8] = target: T8, MET (cMet) (Homo sapiens, UniProt P08581)
T8 construct: purchased ThermoFisher (SelectScreen, Z'-LYTE)
T8 sequence (P08581 25-1390): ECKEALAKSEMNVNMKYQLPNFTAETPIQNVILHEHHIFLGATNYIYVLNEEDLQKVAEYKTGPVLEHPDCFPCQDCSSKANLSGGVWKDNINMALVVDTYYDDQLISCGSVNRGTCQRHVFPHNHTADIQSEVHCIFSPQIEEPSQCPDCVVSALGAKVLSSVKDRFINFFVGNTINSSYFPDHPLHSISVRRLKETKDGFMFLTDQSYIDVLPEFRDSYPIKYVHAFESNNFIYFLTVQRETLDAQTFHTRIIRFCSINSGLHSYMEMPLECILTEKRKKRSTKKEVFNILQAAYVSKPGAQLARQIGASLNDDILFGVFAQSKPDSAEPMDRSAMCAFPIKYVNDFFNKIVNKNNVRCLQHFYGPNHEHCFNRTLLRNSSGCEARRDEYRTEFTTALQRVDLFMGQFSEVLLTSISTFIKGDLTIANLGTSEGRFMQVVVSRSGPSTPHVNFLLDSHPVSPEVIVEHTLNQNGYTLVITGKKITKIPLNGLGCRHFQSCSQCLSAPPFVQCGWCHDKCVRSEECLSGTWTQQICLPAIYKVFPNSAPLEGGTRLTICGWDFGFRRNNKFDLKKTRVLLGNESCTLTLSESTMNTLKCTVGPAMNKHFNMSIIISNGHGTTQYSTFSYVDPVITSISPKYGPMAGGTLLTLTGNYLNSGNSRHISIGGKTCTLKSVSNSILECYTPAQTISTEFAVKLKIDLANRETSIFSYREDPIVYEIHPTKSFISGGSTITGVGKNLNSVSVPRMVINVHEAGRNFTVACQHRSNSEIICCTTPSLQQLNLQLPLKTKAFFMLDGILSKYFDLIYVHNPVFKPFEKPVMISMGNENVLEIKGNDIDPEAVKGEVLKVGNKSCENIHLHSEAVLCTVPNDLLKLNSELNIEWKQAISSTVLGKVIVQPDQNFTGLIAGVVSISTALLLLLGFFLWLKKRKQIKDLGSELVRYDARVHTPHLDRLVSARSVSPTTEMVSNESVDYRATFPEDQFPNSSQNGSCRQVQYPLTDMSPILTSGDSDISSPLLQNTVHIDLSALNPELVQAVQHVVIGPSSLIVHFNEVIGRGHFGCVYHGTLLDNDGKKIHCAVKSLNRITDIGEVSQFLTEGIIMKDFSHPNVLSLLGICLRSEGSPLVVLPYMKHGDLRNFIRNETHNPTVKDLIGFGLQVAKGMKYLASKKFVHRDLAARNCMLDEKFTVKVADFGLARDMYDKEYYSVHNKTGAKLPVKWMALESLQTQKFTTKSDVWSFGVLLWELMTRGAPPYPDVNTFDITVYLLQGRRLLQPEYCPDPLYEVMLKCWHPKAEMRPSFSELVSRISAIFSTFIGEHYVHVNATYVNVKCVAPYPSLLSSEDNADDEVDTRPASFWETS
In short: as §1

[9] = target: T9, FGFR1 (Homo sapiens, UniProt P11362)
T9 construct: purchased ThermoFisher (SelectScreen, Z'-LYTE)
T9 sequence (P11362 22-822): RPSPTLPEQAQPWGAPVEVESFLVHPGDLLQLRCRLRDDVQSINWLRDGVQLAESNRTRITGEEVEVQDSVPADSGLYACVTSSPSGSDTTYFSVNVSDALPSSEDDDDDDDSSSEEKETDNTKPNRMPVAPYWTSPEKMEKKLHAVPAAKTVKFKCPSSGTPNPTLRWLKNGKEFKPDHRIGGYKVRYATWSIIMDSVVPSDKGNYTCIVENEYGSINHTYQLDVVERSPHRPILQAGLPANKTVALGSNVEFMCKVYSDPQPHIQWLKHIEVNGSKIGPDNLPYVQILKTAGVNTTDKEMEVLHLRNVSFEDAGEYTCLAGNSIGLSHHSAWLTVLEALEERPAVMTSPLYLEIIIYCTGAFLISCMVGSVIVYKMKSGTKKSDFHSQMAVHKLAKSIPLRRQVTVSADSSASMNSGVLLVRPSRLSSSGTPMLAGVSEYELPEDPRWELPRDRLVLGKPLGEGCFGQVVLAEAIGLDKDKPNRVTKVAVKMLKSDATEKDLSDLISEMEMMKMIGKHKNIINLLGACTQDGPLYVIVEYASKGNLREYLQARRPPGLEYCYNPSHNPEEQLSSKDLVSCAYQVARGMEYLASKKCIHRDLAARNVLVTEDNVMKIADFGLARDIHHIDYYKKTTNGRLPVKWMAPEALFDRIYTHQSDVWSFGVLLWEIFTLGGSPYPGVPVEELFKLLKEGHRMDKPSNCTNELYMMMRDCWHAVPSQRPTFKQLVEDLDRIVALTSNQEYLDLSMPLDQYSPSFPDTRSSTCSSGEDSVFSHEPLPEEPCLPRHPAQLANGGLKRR
In short: as §1

## Cc1ncc(-c2nc(Nc3ccc(C(=O)NCCN4CCCCC4)cc3)ncc2F)n1C(C)C [Compound 3]
[1]
  inhibition at 10 µM: 88%
[2]
  inhibition at 10 µM: 61%
[3]
  inhibition at 10 µM: 88%
[4]
  inhibition at 10 µM: 45%
[5]
  inhibition at 10 µM: 18%
[6]
  inhibition at 10 µM: 77%
[7]
  inhibition at 10 µM: 89%
[8]
  inhibition at 10 µM: 85%
[9]
  inhibition at 10 µM: 73%

## Cc1cc(Nc2nc(N)nn2C(=O)NC(C)C)ccc1Cl [Compound 5]
[1]
  inhibition at 10 µM: 10%
[2]
  inhibition at 10 µM: 5.47%
[3]
  inhibition at 10 µM: -1.06%
[4]
  inhibition at 10 µM: -17%
[5]
  inhibition at 10 µM: 4%
[6]
  inhibition at 10 µM: 1.46%
[7]
  inhibition at 10 µM: 1.89%
[8]
  inhibition at 10 µM: 25%
[9]
  inhibition at 10 µM: 17%

## XMD8-92 [Compound 2, reference compound]
[1]; 10 µM compound, ATP Km app
  ITK % Inhibition: 18%
[2]; 10 µM compound, ATP Km app
  PTK6 (Brk) % Inhibition: 14%
[3]
  MAP2K6 (MKK6) % Inhibition: 8%
[4]; 10 µM compound, ATP Km app
  PRKCE (PKC epsilon) % Inhibition: 1.55%
[5]; 10 µM compound, ATP Km app
  PRKCZ (PKC zeta) % Inhibition: -2.33%
[6]; 10 µM compound, ATP Km app
  CSNK2A2 (CK2 alpha 2) % Inhibition: -1.72%
[7]; 10 µM compound, ATP Km app
  RPS6KA4 (MSK2) % Inhibition: 12%
[8]; 10 µM compound, ATP Km app
  MET (cMet) % Inhibition: 57%
[9]; 10 µM compound, ATP Km app
  FGFR1 % Inhibition: 8%
